Experimental data as given in the CheMixHub ionic liquid set.

Test: xn = mol fraction of the nth substance listed
Settings: 101 kPa, frequency 0.001 MHz

CCCCCCCCCCCCCCn1cc[n+](C)c1.[Br-] + CC[N+](CC)(CC)CC.[Br-] + O
electrical conductivity [S/m]
Settings | 308.15 K | 318.15 K
x1 = 4.74e-06, x2 = 0 | – | 0.00409
x1 = 4.74e-06, x2 = 1.802e-05 | – | 0.0198
x1 = 4.74e-06, x2 = 3.604e-05 | – | 0.0318
x1 = 4.74e-06, x2 = 9.009e-05 | – | 0.063
x1 = 9.35e-06, x2 = 0 | – | 0.00708
x1 = 9.35e-06, x2 = 1.802e-05 | – | 0.0223
x1 = 9.36e-06, x2 = 3.604e-05 | – | 0.0345
x1 = 9.36e-06, x2 = 9.009e-05 | – | 0.0648
x1 = 1.386e-05, x2 = 0 | – | 0.0101
x1 = 1.386e-05, x2 = 1.802e-05 | – | 0.025
x1 = 1.386e-05, x2 = 3.604e-05 | – | 0.0365
x1 = 1.387e-05, x2 = 9.009e-05 | – | 0.0665
x1 = 1.825e-05, x2 = 0 | – | 0.0127
x1 = 1.826e-05, x2 = 1.802e-05 | – | 0.0271
x1 = 1.826e-05, x2 = 3.604e-05 | – | 0.0389
x1 = 1.827e-05, x2 = 9.009e-05 | – | 0.0681
x1 = 2.252e-05, x2 = 0 | – | 0.0154
x1 = 2.253e-05, x2 = 1.802e-05 | – | 0.0294
x1 = 2.253e-05, x2 = 3.604e-05 | – | 0.0416
x1 = 2.255e-05, x2 = 9.009e-05 | – | 0.0705
x1 = 2.669e-05, x2 = 0 | – | 0.0182
x1 = 2.669e-05, x2 = 1.802e-05 | – | 0.0318
x1 = 2.67e-05, x2 = 3.604e-05 | – | 0.0432
x1 = 2.671e-05, x2 = 9.009e-05 | – | 0.0723
x1 = 3.076e-05, x2 = 0 | – | 0.0206
x1 = 3.077e-05, x2 = 1.802e-05 | – | 0.0341
x1 = 3.077e-05, x2 = 3.604e-05 | – | 0.0451
x1 = 3.079e-05, x2 = 9.009e-05 | – | 0.0738
x1 = 3.474e-05, x2 = 0 | – | 0.0232
x1 = 3.475e-05, x2 = 1.802e-05 | – | 0.0362
x1 = 3.475e-05, x2 = 3.604e-05 | – | 0.0472
x1 = 3.477e-05, x2 = 9.009e-05 | – | 0.0748
x1 = 3.862e-05, x2 = 0 | – | 0.0253
x1 = 3.862e-05, x2 = 1.802e-05 | – | 0.0384
x1 = 3.863e-05, x2 = 3.604e-05 | – | 0.0492
x1 = 3.865e-05, x2 = 9.009e-05 | – | 0.0752
x1 = 4.24e-05, x2 = 0 | – | 0.028
x1 = 4.241e-05, x2 = 1.802e-05 | – | 0.0404
x1 = 4.242e-05, x2 = 3.604e-05 | – | 0.0511
x1 = 4.244e-05, x2 = 9.009e-05 | – | 0.0753
x1 = 4.613e-05, x2 = 0 | – | 0.0303
x1 = 4.614e-05, x2 = 1.802e-05 | – | 0.042
x1 = 4.615e-05, x2 = 3.604e-05 | – | 0.0518
x1 = 4.617e-05, x2 = 9.009e-05 | – | 0.0756
x1 = 4.973e-05, x2 = 0 | – | 0.0322
x1 = 4.974e-05, x2 = 1.802e-05 | – | 0.0432
x1 = 4.975e-05, x2 = 3.604e-05 | – | 0.0525
x1 = 4.978e-05, x2 = 9.009e-05 | – | 0.0758
x1 = 5.334e-05, x2 = 0 | 0.0273 | 0.0335
x1 = 5.335e-05, x2 = 1.802e-05 | 0.035 | 0.0441
x1 = 5.336e-05, x2 = 3.604e-05 | 0.0423 | 0.0531
x1 = 5.339e-05, x2 = 9.009e-05 | 0.063 | 0.0761
x1 = 5.676e-05, x2 = 0 | 0.0282 | 0.0345
x1 = 5.677e-05, x2 = 1.802e-05 | 0.0354 | 0.0449
x1 = 5.678e-05, x2 = 3.604e-05 | 0.0428 | 0.0534
x1 = 5.681e-05, x2 = 9.009e-05 | 0.063 | 0.0763
x1 = 6e-05, x2 = 0 | 0.0288 | 0.0356
x1 = 6.001e-05, x2 = 1.802e-05 | 0.0359 | 0.0455
x1 = 6.003e-05, x2 = 3.604e-05 | 0.0432 | 0.0541
x1 = 6.006e-05, x2 = 9.009e-05 | 0.0633 | 0.0768
x1 = 6.343e-05, x2 = 0 | 0.0294 | 0.0365
x1 = 6.344e-05, x2 = 1.802e-05 | 0.0364 | 0.0461
x1 = 6.345e-05, x2 = 3.604e-05 | 0.0435 | 0.0542
x1 = 6.349e-05, x2 = 9.009e-05 | 0.0636 | 0.0773
x1 = 6.667e-05, x2 = 0 | 0.03 | 0.0372
x1 = 6.668e-05, x2 = 1.802e-05 | 0.0368 | 0.0467
x1 = 6.67e-05, x2 = 3.604e-05 | 0.0439 | 0.0548
x1 = 6.673e-05, x2 = 9.009e-05 | 0.0637 | 0.0777
x1 = 6.973e-05, x2 = 0 | 0.0305 | 0.0377
x1 = 6.975e-05, x2 = 1.802e-05 | 0.0373 | 0.0473
x1 = 6.976e-05, x2 = 3.604e-05 | 0.0442 | 0.0552
x1 = 6.98e-05, x2 = 9.009e-05 | 0.0641 | 0.0781
x1 = 7.28e-05, x2 = 0 | 0.0311 | 0.0383
x1 = 7.281e-05, x2 = 1.802e-05 | 0.0375 | 0.0478
x1 = 7.282e-05, x2 = 3.604e-05 | 0.0445 | 0.0555
x1 = 7.287e-05, x2 = 9.009e-05 | 0.0646 | 0.0785
x1 = 7.586e-05, x2 = 0 | 0.0316 | 0.0389
x1 = 7.587e-05, x2 = 1.802e-05 | 0.0382 | 0.0482
x1 = 7.589e-05, x2 = 3.604e-05 | 0.0453 | 0.0561
x1 = 7.593e-05, x2 = 9.009e-05 | 0.065 | 0.0786
x1 = 7.892e-05, x2 = 0 | 0.0321 | 0.0396
x1 = 7.894e-05, x2 = 1.802e-05 | 0.0389 | 0.0485
x1 = 7.895e-05, x2 = 3.604e-05 | 0.0455 | 0.0568
x1 = 7.9e-05, x2 = 9.008e-05 | 0.0654 | 0.0789
x1 = 8.18e-05, x2 = 0 | 0.0326 | 0.0408
x1 = 8.182e-05, x2 = 1.802e-05 | 0.0391 | 0.0492
x1 = 8.184e-05, x2 = 3.604e-05 | 0.0458 | 0.0571
x1 = 8.188e-05, x2 = 9.008e-05 | 0.0658 | 0.0792
x1 = 8.451e-05, x2 = 0 | 0.0329 | 0.0414
x1 = 8.452e-05, x2 = 1.802e-05 | 0.0395 | 0.0496
x1 = 8.454e-05, x2 = 3.604e-05 | 0.0462 | 0.0573
x1 = 8.459e-05, x2 = 9.008e-05 | 0.066 | 0.0796
x1 = 8.739e-05, x2 = 0 | 0.0333 | 0.0418
x1 = 8.741e-05, x2 = 1.802e-05 | 0.0399 | 0.0502
x1 = 8.742e-05, x2 = 3.604e-05 | 0.0464 | 0.058
x1 = 8.747e-05, x2 = 9.008e-05 | 0.0665 | 0.0801
